Assay results from US9113629B2, “4-amino-6-(4-substituted-phenyl)-picolinates and 6-amino-2-(4-substituted-phenyl)-pyrimidine-4-carboxylates and their use as herbicides” (DOW AGROSCIENCES LLC, priority 2013, dated 2015).

Tests used:
[1] = tested on: TRZSS: wheat, including spring and winter (Triticum aestivum); experiment: Post-emergent Test III, herbicidal activity in wheat and barley; assay type: in vivo; details: Table 9, 21 d; for GR20 TRZSS: dose for 20 percent growth reduction, probit analysis; for pest or weed control at 35 g/ha: 35 g ai/ha; for pest or weed control at 70 g/ha: 70 g ai/ha
Outline: (§1)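 Plants at the second to third true-leaf stage, grown in a greenhouse at about 18/17 °C with a 14 h photoperiod, were sprayed post-emergence at 187 L/ha with the high rate and ½× to 1/16× serial dilutions in an acetone/DMSO/crop-oil/surfactant carrier. Injury was rated visually at 21 d on a 0–100% scale, and GR20–GR90 were derived by probit analysis.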

[2] = tested on: LOLSS: ryegrass including, Italian ryegrass (Lolium multiflorum), rigid ryegrass (Lolium rigidum), annual ryegrass (Lolium multiflorum subsp. Gaudini); experiment: as above; assay type: in vivo; details: Table 9, probit analysis, 21 d; for GR50 LOLSS: dose for 50 percent growth reduction; for GR80 LOLSS: dose for 80 percent growth reduction
Outline: as §1

[3] = tested on: HORSS: barley, including spring and winter (Hordeum vulgare); experiment: as above; assay type: in vivo; details: Table 9, 21 d; for pest or weed control at 35 g/ha: 35 g ai/ha; for pest or weed control at 70 g/ha: 70 g ai/ha; for GR20 HORSS: dose for 20 percent growth reduction, probit analysis
Outline: as §1

[4] = as above; assay type: in vivo, Lolium multiflorum, Lolium rigidum; details: Lolium multiflorum, post-emergence, 504 h, Table 9, post-emergent, 21 d, read-out: Visual Growth Reduction (%) 21 Days After Application LOLSS; for pest or weed control at 35 g/ha: 35 g ai/ha; for pest or weed control at 70 g/ha: 70 g ai/ha
Outline: as §1

[5] = tested on: APESV: bentgrass (Apera spica-venti); experiment: as above; assay type: in vivo; details: Table 9, 21 d; for pest or weed control at 35 g/ha: 35 g ai/ha; for pest or weed control at 70 g/ha: 70 g ai/ha; for GR50 APESV: dose for 50 percent growth reduction; for GR50 APESV / GR80 APESV: probit analysis; for GR80 APESV: dose for 80 percent growth reduction
Outline: as §1

[6] = tested on: SETVI: green foxtail (Setaria viridis); experiment: as above; assay type: in vivo; details: Table 9, 21 d; for pest or weed control at 35 g/ha: 35 g ai/ha; for pest or weed control at 70 g/ha: 70 g ai/ha; for GR50 SETVI: dose for 50 percent growth reduction; for GR50 SETVI / GR80 SETVI: probit analysis; for GR80 SETVI: dose for 80 percent growth reduction
Outline: as §1

[7] = tested on: KCHSC: kochia (Kochia scoparia); experiment: as above; assay type: in vivo; details: Table 9, 21 d; for pest or weed control at 35 g/ha: 35 g ai/ha; for pest or weed control at 70 g/ha: 70 g ai/ha; for GR50 KCHSC: dose for 50 percent growth reduction; for GR50 KCHSC / GR80 KCHSC: probit analysis; for GR80 KCHSC: dose for 80 percent growth reduction
Outline: as §1

[8] = Triticum aestivum, post-emergence, 504 h, post-emergent, read-out: Visual Growth Reduction (%) 21 Days After Application TRZSS
[9] = Hordeum vulgare, post-emergence, 504 h, post-emergent, read-out: Visual Growth Reduction (%) 21 Days After Application HORSS
[10] = Apera spica-venti, post-emergence, 504 h, post-emergent, read-out: Visual Growth Reduction (%) 21 Days After Application APESV
[11] = Setaria viridis, post-emergence, 504 h, post-emergent, read-out: Visual Growth Reduction (%) 21 Days After Application SETVI
[12] = Bassia scoparia, post-emergence, 504 h, post-emergent, read-out: Visual Growth Reduction (%) 21 Days After Application KCHSC

Row | Structure (SMILES) | GR20 TRZSS [1] [g ai/ha] | pest or weed control at 35 g/ha [1, 8] [%] | pest or weed control at 70 g/ha [1, 8] [%] | GR50 LOLSS [2] [g ai/ha] | GR80 LOLSS [2] [g ai/ha] | pest or weed control at 35 g/ha [3, 9] [%] | pest or weed control at 70 g/ha [3, 9] [%] | GR20 HORSS [3] [g ai/ha] | pest or weed control at 35 g/ha [4] [%] | pest or weed control at 70 g/ha [4] [%] | pest or weed control at 35 g/ha [5, 10] [%] | pest or weed control at 70 g/ha [5, 10] [%] | GR50 APESV [5] [g ai/ha] | GR80 APESV [5] [g ai/ha] | pest or weed control at 35 g/ha [6, 11] [%] | pest or weed control at 70 g/ha [6, 11] [%] | GR50 SETVI [6] [g ai/ha] | GR80 SETVI [6] [g ai/ha] | pest or weed control at 35 g/ha [7, 12] [%] | pest or weed control at 70 g/ha [7, 12] [%] | other results
1 | COC(=O)c1nc(-c2ccc(I)cc2F)cc(N)c1Cl [Compound 159] | 1 | 85 to 94 | 95 to 100 | 36 | 89 | 85 to 94 | 95 to 100 | 1 | 45 to 59 | 60 to 74 | 85 to 94 | 95 to 100 | 11 | 25 | 45 to 59 | 60 to 74 | 43 | 113 | 85 to 94 | 95 to 100 | GR50 KCHSC [7]: 4 g ai/ha; GR80 KCHSC [7]: 19 g ai/ha; melting point: 139.8 to 141.2 °C
2 | Nc1c(Cl)c(C(=O)O)nc(-c2ccc(Br)cc2)c1Cl [Compound 125] | 1 | 75 to 84 | 75 to 84 | >140 | >140 | 85 to 94 | 95 to 100 | 1 | 0 to 29 | 0 to 29 | 75 to 84 | 85 to 94 | 10 | 41 | 85 to 94 | 85 to 94 | 2 | 16 | 60 to 74 | 85 to 94 | pest or weed control at 140 g/ha ([1]; Triticum aestivum, post-emergence, 504 h, 140 g ai/ha, post-emergent, read-out: Visual Growth Reduction (%) 21 Days After Application TRZSS): 85 to 94%; pest or weed control at 140 g/ha ([3]; Hordeum vulgare, post-emergence, 504 h, 140 g ai/ha, post-emergent, read-out: Visual Growth Reduction (%) 21 Days After Application HORSS): 95 to 100%; pest or weed control at 140 g/ha ([4]; 140 g ai/ha): 45 to 59%; pest or weed control at 140 g/ha ([5]; Apera spica-venti, post-emergence, 504 h, 140 g ai/ha, post-emergent, read-out: Visual Growth Reduction (%) 21 Days After Application APESV): 95 to 100%; pest or weed control at 140 g/ha ([6]; Setaria viridis, post-emergence, 504 h, 140 g ai/ha, post-emergent, read-out: Visual Growth Reduction (%) 21 Days After Application SETVI): 85 to 94%; pest or weed control at 140 g/ha ([7]; Bassia scoparia, post-emergence, 504 h, 140 g ai/ha, post-emergent, read-out: Visual Growth Reduction (%) 21 Days After Application KCHSC): 95 to 100%; GR50 KCHSC [7]: 8 g ai/ha; GR80 KCHSC [7]: 34 g ai/ha; melting point: 164.9 to 166.1 °C
3 | COC(=O)c1nc(-c2cc(F)c(Br)cc2F)c(F)c(N)c1Cl [Compound 51, methyl 4-amino-6-(4-bromo-2,5-difluorophenyl)-3-chloro-5-fluoropicolinate] | 1 | 85 to 94 | 95 to 100 | 3 | 61 | 85 to 94 | 95 to 100 | 1 | 75 to 84 | 75 to 84 | 85 to 94 | 95 to 100 | 3 | 11 | 75 to 84 | 85 to 94 | 24 | 49 | 85 to 94 | 95 to 100 | GR50 KCHSC [7]: 4 g ai/ha; GR80 KCHSC [7]: 14 g ai/ha; melting point: 153 to 154 °C
